Values quoted from earlier work, collected in US20260284070A1, “Ophthalmic Solution of Brinzolamide” (Micro Labs Limited, priority 2023, published 2026).

Settings: physiological pH (pH 6.0 to 7.5)

- Solubility: very limited solubility
Compound: CCN[C@H]1CN(CCCOC)S(=O)(=O)c2sc(S(N)(=O)=O)cc21 [Brinzolamide, (R)-(+)-4-Ethylamino-2-(3-methoxypropyl)-3,4-dihydro-2H-thieno[3,2-e]-1,2-thiazine-6-sulfonamide-1,1-dioxide]
